Laboratory results published in patent US12133855B2, “Lipid-like nanocomplexes and uses thereof” (Trustees of Tufts College, priority 2018, dated 2024).

Experiments:
[1] = tested on: HEK 293 (human embryonic kidney cells); test: GFP mRNA delivery (GFP+ cells); format: cell-based; settings: LNP/mRNA=10/1, [mRNA]=0.86 μg mL^−1, 24 h
Description: (§1) To examine the delivery spectrum of the newly developed LNPs, the GFP mRNA loaded OCholB LNPs were then challenged against other four types of cell lines. B16F10 (mouse melanoma cells), HEK 293 (human embryonic kidney cells), NIH 3T3 (mouse embryonic fibroblast cells) and Jurkat (human T lymphocyte cells) cells were tested (LNP/mRNA=10/1; [mRNA]=0.86 μg mL^−1; 24 h exposure) and the results are shown in FIG. 14D. As the positive control, Lpf2k turned out to be very efficient to deliver GFP mRNA into B16F10 (63.2% of GFP^+ cells), HEK 293 (80.1%) and NIH 3T3 (70.1%) cells, while slightly less efficient to Jurkat cell (28.7%), which is usually considered to be one of the most difficult-to-transfect cell lines. […] For example, 63.0%, 60.9%, 54.1% and 50.1% of GFP^+ cells were determined from mRNA/75-OCholB treated B16F10, HEK 293, NIH 3T3 and Jurkat cells; and the numbers for mRNA/76-OCholB treated cells were 70.7%, 75.8%, 24.1% and 7.7%, respectively. It was obvious that not only the types of lipidoids, but also the target cell lines could have huge impacts on the delivery efficacy. Overall, the positive control, Lpf2k, is a relatively high-activity broad-spectrum transfection reagent; most of the OCholB LNPs (6 out of 9) are also effective broad-spectrum transfection reagents under the tested conditions. […] It was expected that through further formulation optimization, such as adding excipients (helper lipids like small molecular phospholipids (e.g. DOPE and DSPC) and macromolecules lipids (e.g. PEG-DSPE and PEG-Ceramide)) into the LNPs and/or using more controllable self-assembly procedures, improved transfection efficiency of the fully substituted OCholB LNPs could be achieved.

[2] = tested on: NIH 3T3 (mouse embryonic fibroblast cells); test: GFP mRNA delivery (GFP+ cells); format: cell-based; settings: LNP/mRNA=10/1, [mRNA]=0.86 μg mL^−1, 24 h
Description: as §1

[3] = tested on: B16F10 (mouse melanoma cells); test: GFP mRNA delivery (GFP+ cells); format: cell-based; settings: LNP/mRNA=10/1, [mRNA]=0.86 μg mL^−1, 24 h
Description: as §1

Ai14 mice = test: In vivo genome editing, intravenous injection, tdTomato expression; design: species or system mouse; settings: day 14
Description: Similar to the in vitro transfection study, lipidoid nanoparticles were prepared for mRNA or protein loading and in vivo delivery. Ai14 mice were housed in a temperature and humidity controlled facility with a 12 h light/dark cycle. Three mice in each group were injected (intravenously or intramuscularly) with Cre mRNA-loaded or (−30)GFP-Cre protein-loaded LNPs formulations. Organs including heart, liver, spleen, lung and kidney from all groups were collected at day 10 (intramuscular injection) or 14 (intravenous injection) after injection. The tissues were fixed overnight in 4% paraformaldehyde (PFA) and dehydrated in 30% sucrose before being froze in OCT and sectioned into 10-15 μm slices. The slices were then collected and stained with DAPI for fluorescence imaging (BZ-X Analyzer fluorescence microscopy).
Cre-loxP system and transgenic Ai14 mouse model were used in the in vivo genome editing study. […] When the Cre recombinase mediated gene reorganization occurs, the STOP cassette could be removed, resulting in the expression of fluorescent tdTomato reporter protein.
The OCholB LNPs was further investigated if they can induce successful gene editing in vivo through a systemic administration pathway. At first, Ai14 mice (n=3) were injected through tail vein (intravenous (IV) injection) with (−30)GFP-Cre protein loaded LNPs at day 1 and 5 (50 μg protein for each injection; 100 μg in total), then sacrificed at day 14 for analysis (FIG. 17C). […] The heart, liver, spleen, lung and kidney from each group were collected and analyzed. […] Like most intravenous nano-therapeutics, the (−30)GFP-Cre protein complexed OCholB nanoparticles injected through tail vein would travel first to the heart, and from there directly to the lung. The nanoparticle formulations (which may have complexed with serum proteins) could be easily trapped in the vasculature structures in the capillary bed of the lung, delaying or inhibiting the redistribution of LNPs to the liver, spleen and other organs. During the in vivo transport and redistribution process, some of the protein loaded LNPs may successfully enter into the cells in lung or spleen to induce the genome editing and tdTomato expression cascade. Degradation, aggregation and/or immune cells sequestration of the cargo protein and carrier LNPs would dramatically reduce or perhaps even prohibit genome editing events.
Next, in vivo systemic mRNA delivery using OCholB LNPs was tested using a similar intravenous injection protocol (FIG. 17C). Cre mRNA loaded 76-OCholB LNPs were injected at day 1 and day 5 (10 μg mRNA for each injection; 20 μg in total), and mice were sacrificed at day 14. All the major organs (heart, liver, spleen, lung and kidney) were collected and analyzed. […]

[4] = (−30)GFP-Cre loaded, IV day 1 and 5, 50 μg protein each
[5] = Cre mRNA loaded, IV day 1 and 5, 10 μg mRNA each

Row | SMILES | GFP^+ cells [1] [%] | GFP^+ cells [2] [%] | GFP^+ cells [3] [%] | genome editing efficacy in the spleen (Ai14 mice; [4]) | tdTomato positive cells in the spleen (Ai14 mice; [5]) | tdTomato signals in other organs (heart, liver, lung, kidney) (Ai14 mice; [5]) | genome editing efficacy in the lung (Ai14 mice; [4])
1 | CCN(CC)CCN(CCC(=O)OCCSSCCNC(=O)OC1CCC2(C)C(=CCC3C2CCC2(C)C(C(C)CCCC(C)C)CCC32)C1)CCC(=O)OCCSSCCNC(=O)OC1CCC2(C)C(=CCC3C2CCC2(C)C(C(C)CCCC(C)C)CCC32)C1 (stereo not shown) [Lipidoid 75-OCholB] | 60.9 | 54.1 | 63.0 |  |  |  | 
2 | CC(C)CCCC(C)C1CCC2C3CC=C4CC(OC(=O)NCCSSCCOC(=O)CCN(CCC(=O)OCCSSCCNC(=O)OC5CCC6(C)C(=CCC7C6CCC6(C)C(C(C)CCCC(C)C)CCC76)C5)CCN5CCCC5)CCC4(C)C3CCC12C (stereo not shown) [Lipidoid 76-OCholB] | 75.8 | 24.1 | 70.7 | Relative high genome editing efficacy | significant amount of tdTomato positive cells | positive signals were not found | 
3 | CC(C)CCCC(C)C1CCC2C3CC=C4CC(OC(=O)NCCSSCCOC(=O)CCN(CCCN(C)C)CCC(=O)OCCSSCCNC(=O)OC5CCC6(C)C(=CCC7C6CCC6(C)C(C(C)CCCC(C)C)CCC76)C5)CCC4(C)C3CCC12C (stereo not shown) [Lipidoid 80-OCholB] |  |  |  |  |  |  | Relative high genome editing efficacy
